According to ChEMBL document CHEMBL1201862, “PubChem BioAssay data set” (2004):
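96-well plates; 48 h exposure; 5 concentrations. Endpoints by linear interpolation between flanking doses. Not reached: highest tested concentration assigned. GI50: concentration for 50% inhibition of growth.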 Calls of active or inactive are those of the source. No stated cut-off is given here; in the data, active = GI50 up to about 1.1 µM and inactive = higher.

Key:
Assay in all cases: DTP human tumour cell line panel, 48 h
[1] = tested on: ACHN
[2] = tested on: CAKI-1
[3] = tested on: HCT-15
[4] = tested on: HL-60
[5] = tested on: HOP-92
[6] = tested on: Hs-578T
[7] = tested on: M14
[8] = tested on: MOLT-4
[9] = tested on: NCI-H23
[10] = tested on: NCI-H460
[11] = tested on: NCI-H522
[12] = tested on: NCI/ADR-RES
[13] = tested on: OVCAR-4
[14] = tested on: OVCAR-8
[15] = tested on: PC-3
[16] = tested on: SF-268
[17] = tested on: SF-295
[18] = tested on: SNB-19
[19] = tested on: SNB-75
[20] = tested on: T47D

| Structure (SMILES) | GI50 [1] | GI50 [2] | GI50 [3] [µM] | GI50 [4] | GI50 [5] | GI50 [6] | GI50 [7] | GI50 [8] | GI50 [9] | GI50 [10] | GI50 [11] | GI50 [12] | GI50 [13] | GI50 [14] | GI50 [15] | GI50 [16] | GI50 [17] | GI50 [18] | GI50 [19] | GI50 [20] |
| --- | --- | --- | --- | --- | --- | --- | --- | --- | --- | --- | --- | --- | --- | --- | --- | --- | --- | --- | --- | --- |
| CC[C@]1(Cc2ccc(OC)c(OC)c2)C=[N+]([O-])O[C@H](OC2CCCC2(c2ccccc2)c2ccccc2)[C@@H]1OC(=O)c1ccccc1 (stereo not given in full) | 7.83 µM (inactive) | > 100 µM (inactive) | 11.7 | 3.21 µM (inactive) | 3.02 µM (inactive) | > 100 µM (inactive) | 8.13 µM (inactive) | 2.63 µM (inactive) | 6.37 µM (inactive) | 14.2 µM (inactive) | 3.87 µM (inactive) | 4.73 µM (inactive) | 7.38 µM (inactive) | 3.71 µM (inactive) | 5.47 µM (inactive) | 28.7 µM (inactive) | 14.1 µM (inactive) | > 29.2 µM (inactive) | 6.62 µM (inactive) | 2.73 µM (inactive) |
| Oc1cc(-c2cccc(OC(F)(F)F)c2)nc2cc3c(cc12)OCO3 | > 32.7 µM (inactive) | 0.0885 µM (active) | 0.0475 | 0.0131 µM (active) | 1.05 µM (active) | 0.1 µM (active) | 0.0867 µM (active) | 0.0371 µM (active) | 0.12 µM (active) | 0.0877 µM (active) | 0.0441 µM (active) | 0.0334 µM (active) | 1.19 µM (inactive) | 0.155 µM (active) | 0.0366 µM (active) | 2.72 µM (inactive) | 0.0845 µM (active) | 0.0938 µM (active) | 0.568 µM (active) | 55.7 µM (inactive) |
| CCCNC(=S)N/N=C1\C(=O)Nc2ccccc21 | > 100 µM (inactive) | > 100 µM (inactive) | > 100 | > 100 µM (inactive) | > 100 µM (inactive) | > 100 µM (inactive) | > 100 µM (inactive) | > 100 µM (inactive) | > 100 µM (inactive) | > 100 µM (inactive) | > 100 µM (inactive) | > 100 µM (inactive) | > 100 µM (inactive) | > 100 µM (inactive) | > 100 µM (inactive) | > 100 µM (inactive) | > 100 µM (inactive) | > 100 µM (inactive) | > 100 µM (inactive) | > 100 µM (inactive) |
| CCCCCCCCCC[C@@H](O)[C@H]1CC[C@H]([C@H]2CC[C@H]([C@H](O)CCCCCCCCCC[C@@H]3CC(CC(C)=O)C(=O)O3)O2)O1 (stereo not given in full) | > 28.5 µM (inactive) | > 47.1 µM (inactive) | 28.3 | 5.61 µM (inactive) | > 50 µM (inactive) | 7.19 µM (inactive) | 26.3 µM (inactive) | 3.77 µM (inactive) | 1.7 µM (inactive) | 0.254 µM (active) | 7.87 µM (inactive) | 4.69 µM (inactive) | 28.7 µM (inactive) | 7.66 µM (inactive) | 21.7 µM (inactive) | > 50 µM (inactive) | 1.94 µM (inactive) | > 47.3 µM (inactive) | > 50 µM (inactive) | > 17.2 µM (inactive) |
| CC(=O)CSc1c(-c2ccccc2)c(=O)n(-c2ccccc2)c(=S)n1-c1ccccc1 | > 100 µM (inactive) | > 100 µM (inactive) | > 100 | > 100 µM (inactive) | > 100 µM (inactive) | 82.2 µM (inactive) | > 100 µM (inactive) | 47.4 µM (inactive) | > 100 µM (inactive) | > 100 µM (inactive) | > 100 µM (inactive) | > 100 µM (inactive) | > 100 µM (inactive) | > 100 µM (inactive) | > 100 µM (inactive) | > 100 µM (inactive) | > 100 µM (inactive) | > 100 µM (inactive) | 61.2 µM (inactive) | > 100 µM (inactive) |
| COc1cc2oc3cc(=O)cc4oc(-c5ccccc5)cc(c2c2c1CCC(c1ccccc1)O2)c43 (stereo not given) | 19.3 µM (inactive) | 15.7 µM (inactive) | 20.4 | 25 µM (inactive) | > 100 µM (inactive) | 85.9 µM (inactive) | 17.4 µM (inactive) | 8.95 µM (inactive) | 62.8 µM (inactive) | 27.5 µM (inactive) | 34.8 µM (inactive) | > 100 µM (inactive) | > 100 µM (inactive) | 50 µM (inactive) | 47.8 µM (inactive) | > 100 µM (inactive) | 19.1 µM (inactive) | 63 µM (inactive) | 79.1 µM (inactive) | 17.7 µM (inactive) |
